Assay results reported in article PMC9223764, “In Vitro Selection and Characterization of HIV-1 Variants with Increased Resistance to LP-40, Enfuvirtide-Based Lipopeptide Inhibitor” (International Journal of Molecular Sciences, 2022).
Where a SMILES comes first, the peptide text is derived from it. The star is where a group is joined. Palmitoyl = CCCCCCCCCCCCCCCC(=O)*

Tests used:
Format in all cases: cell-based
[1] = test system: LP40-V8 pseudovirus (HIV-1 NL4-3 Env mutant); settings: for IC50: LP40-V8 (Env selected at LP-40 8 µM), TZM-bl cells, 48 h, luciferase, mean ± SD, triplicate, repeated three times
Description: (§1) To simulate the sequence changes of viral resistance genes under different drug concentration pressures, we constructed the Env genes under different drug concentration pressures in the PCDNA3.1 vector and obtained a series of mutations. […] T20-V 6~12, T20-V 13~14, and T 20-V 15~18 were constructed at concentrations of 200 µM (P21), 400 µM (P24), and 2000 µM (P32), respectively. Similarly, the LP-40 pressure concentrations were 0.3 µM, 8 µM, 20 µM, and 200 µM, respectively, and the constructs were numbered LP40-V 1~5, LP40-V 6~8, LP40-V 9~11, and LP40-V 12~15. Resistance mutations will cause varying levels of damage to the function of the pseudoviral envelope proteins. Here, we explored how serial mutations affect the function of viral envelope proteins. Based on this problem, we performed a single round of quantitative P24-infection experiments, packaging the pseudovirus with a previously constructed series of mutant plasmids. We compared the invasion ability of the HIV-1 wild-type and mutant pseudoviruses toward target cells under the same P24 content (using the invasion capacity of each subtype as 100%).
(§2) The infectivity of HIV Env mutants and the inhibitory activities of membrane fusion inhibitors on mutants in TZM-bl cells were measured using a single-cycle infection assay as described previously. Briefly, the HIV pseudovirus was packed using an Env-coding plasmid, and pSG3ΔEnv was co-transfected into HEK293T cells. pSG3ΔEnv encodes an Env-defective, luciferase-expressing HIV-1 genome. After the pseudoviruses were harvested and filtrated, the amount of pseudoviruses was fixed via P24 antigen, and their infectivity was determined in TZM-bl cells. In order to measure the inhibitory activities of the inhibitors, inhibitors diluted serially 3-fold were mixed with an equal volume of pseudoviruses, and then 100 µL 1 × 10^5/mL TZM-bl cells were added to the mixture and incubated at 37 °C with 5% CO2 for 48 h. After that, TZM-bl cells were lysed using reporter lysis buffer, and IC50 values were calculated according to luciferase activity measured by luciferase assay reagents and a luminescence counter (Promega, Madison, WI, USA).

[2] = test system: T20-V13 pseudovirus (HIV-1 NL4-3 Env mutant); settings: for IC50: T20-V13 (Env selected at T20 400 µM, P24), TZM-bl cells, 48 h, luciferase, mean ± SD, triplicate, repeated three times
Description: as §1, §2

[3] = test system: T20-V16 pseudovirus (HIV-1 NL4-3 Env mutant); settings: for IC50: T20-V16 (Env selected at T20 2000 µM, P32), TZM-bl cells, 48 h, luciferase, mean ± SD, triplicate, repeated three times
Description: as §1, §2

[4] = test system: T20-V17 pseudovirus (HIV-1 NL4-3 Env mutant); settings: for IC50: T20-V17 (Env selected at T20 2000 µM, P32), TZM-bl cells, 48 h, luciferase, mean ± SD, triplicate, repeated three times
Description: as §1, §2

[5] = test system: LP40-V13 pseudovirus (HIV-1 NL4-3 Env mutant); settings: for IC50: LP40-V13 (Env selected at LP-40 200 µM), TZM-bl cells, 48 h, luciferase, mean ± SD, triplicate, repeated three times
Description: as §1, §2

[6] = test system: T20-V10 pseudovirus (HIV-1 NL4-3 Env mutant); settings: for IC50: T20-V10 (Env selected at T20 200 µM, P21), TZM-bl cells, 48 h, luciferase, mean ± SD, triplicate, repeated three times
Description: as §1, §2

[7] = test system: T20-V7 pseudovirus (HIV-1 NL4-3 Env mutant); settings: for IC50: T20-V7 (Env selected at T20 200 µM, P21), TZM-bl cells, 48 h, luciferase, mean ± SD, triplicate, repeated three times
Description: as §1, §2

[8] = test system: T20-V18 pseudovirus (HIV-1 NL4-3 Env mutant); settings: for IC50: T20-V18 (Env selected at T20 2000 µM, P32), TZM-bl cells, 48 h, luciferase, mean ± SD, triplicate, repeated three times
Description: as §1, §2

[9] = test system: T20-V6 pseudovirus (HIV-1 NL4-3 Env mutant); settings: for IC50: T20-V6 (Env selected at T20 200 µM, P21), TZM-bl cells, 48 h, luciferase, mean ± SD, triplicate, repeated three times
Description: as §1, §2

[10] = test system: T20-V15 pseudovirus (HIV-1 NL4-3 Env mutant); settings: for IC50: T20-V15 (Env selected at T20 2000 µM, P32), TZM-bl cells, 48 h, luciferase, mean ± SD, triplicate, repeated three times
Description: as §1, §2

[11] = test system: T20-V2 pseudovirus (HIV-1 NL4-3 Env mutant); settings: for IC50: T20-V2 (Env selected at T20 12 µM, P9), TZM-bl cells, 48 h, luciferase, mean ± SD, triplicate, repeated three times
Description: as §1, §2

[12] = test system: LP40-V12 pseudovirus (HIV-1 NL4-3 Env mutant); settings: for IC50: LP40-V12 (Env selected at LP-40 200 µM), TZM-bl cells, 48 h, luciferase, mean ± SD, triplicate, repeated three times
Description: as §1, §2

[13] = test system: LP40-V10 pseudovirus (HIV-1 NL4-3 Env mutant); settings: for IC50: LP40-V10 (Env selected at LP-40 20 µM), TZM-bl cells, 48 h, luciferase, mean ± SD, triplicate, repeated three times
Description: as §1, §2

[14] = test system: T20-V1 pseudovirus (HIV-1 NL4-3 Env mutant); settings: for IC50: T20-V1 (Env selected at T20 12 µM, P9), TZM-bl cells, 48 h, luciferase, mean ± SD, triplicate, repeated three times
Description: as §1, §2

[15] = test system: T20-V14 pseudovirus (HIV-1 NL4-3 Env mutant); settings: for IC50: T20-V14 (Env selected at T20 400 µM, P24), TZM-bl cells, 48 h, luciferase, mean ± SD, triplicate, repeated three times
Description: as §1, §2

Compound	IC50 [1] [nM]	IC50 [2] [nM]	IC50 [3] [nM]	IC50 [4] [nM]	IC50 [5] [nM]	IC50 [6] [nM]	IC50 [7] [nM]	IC50 [8] [nM]	IC50 [9] [nM]	IC50 [10] [nM]	IC50 [11] [nM]	IC50 [12] [nM]	IC50 [13] [nM]	IC50 [14] [nM]	IC50 [15] [nM]	other results
Enfuvirtide	1150 ± 137	4010 ± 571	1740 ± 229	2890 ± 882	5170 ± 2460	3340 ± 433	2810 ± 458	6150 ± 475	3850 ± 516	2090 ± 248	147 ± 39.4	5870 ± 978	1260 ± 264	57.7 ± 7.23	4430 ± 967	
CCCCCCCCCCCCCCCC(=O)NCCCC[C@H](NC(=O)[C@H](CC(=O)O)NC(=O)[C@H](CC(C)C)NC(=O)[C@H](CCC(=O)O)NC(=O)[C@H](CC(C)C)NC(=O)[C@H](CC(C)C)NC(=O)[C@H](CCC(=O)O)NC(=O)[C@H](CCC(N)=O)NC(=O)[C@H](CCC(=O)O)NC(=O)[C@H](CC(N)=O)NC(=O)[C@H](CCCCN)NC(=O)[C@H](CCC(=O)O)NC(=O)[C@H](CCC(N)=O)NC(=O)[C@H](CCC(N)=O)NC(=O)[C@H](CC(N)=O)NC(=O)[C@H](CCC(N)=O)NC(=O)[C@H](CO)NC(=O)[C@H](CCC(=O)O)NC(=O)[C@H](CCC(=O)O)NC(=O)[C@@H](NC(=O)[C@H](CC(C)C)NC(=O)[C@H](CO)NC(=O)[C@H](Cc1c[nH]cn1)NC(=O)[C@@H](NC(=O)[C@H](CC(C)C)NC(=O)[C@H](CO)NC(=O)[C@@H](NC(=O)[C@H](Cc1ccc(O)cc1)NC(C)=O)[C@@H](C)O)[C@@H](C)CC)[C@@H](C)CC)C(N)=O [LP-40] (Ac-YTSLIHSLIEESQNQQEKNEQELLELDK(Palmitoyl)-NH2)	2880 ± 1070	3190 ± 207	> 6250	5170 ± 1020	> 6250	6080 ± 1170	2730 ± 212	> 6250	3510 ± 631	> 6250	59.2 ± 15.9	> 6250	2750 ± 634	40.1 ± 8.62	2900 ± 85.1	Fold change in IC50 ([1]; LP40-V8 relative to WT NL4-3, Table 1): 97.17 fold; Fold change in IC50 ([2]; T20-V13 relative to WT NL4-3, Table 1): 107.32 fold; Fold change in IC50 ([3]; T20-V16 relative to WT NL4-3, Table 1): >227.43 fold; Fold change in IC50 ([4]; T20-V17 relative to WT NL4-3, Table 1): 174.12 fold; Fold change in IC50 ([5]; LP40-V13 relative to WT NL4-3, Table 1): >227.43 fold; Fold change in IC50 ([6]; T20-V10 relative to WT NL4-3, Table 1): 204.88 fold; Fold change in IC50 ([7]; T20-V7 relative to WT NL4-3, Table 1): 91.82 fold; Fold change in IC50 ([8]; T20-V18 relative to WT NL4-3, Table 1): >227.43 fold; Fold change in IC50 ([9]; T20-V6 relative to WT NL4-3, Table 1): 118.37 fold; Fold change in IC50 ([10]; T20-V15 relative to WT NL4-3, Table 1): >227.43 fold; Fold change in IC50 ([11]; T20-V2 relative to WT NL4-3, Table 1): 2.00 fold; Fold change in IC50 ([12]; LP40-V12 relative to WT NL4-3, Table 1): >227.43 fold; Fold change in IC50 ([13]; LP40-V10 relative to WT NL4-3, Table 1): 92.52 fold; Fold change in IC50 ([14]; T20-V1 relative to WT NL4-3, Table 1): 1.35 fold; Fold change in IC50 ([15]; T20-V14 relative to WT NL4-3, Table 1): 97.57 fold
